Data on two compounds can be found in EP4624457A1, “I[…] DERIVATIVES, I[…] NEURODEGENERATIVE DISEASES” (Centre National de la Recherche Scientifique, priority 2024, dated 2025).

For this experiment, the system named is HCT116 cells. As to the kind of experiment: JC-1 mitochondrial membrane potential assay (flow cytometry). It counts as cell-based, human. On the procedure:
• Figure 1 represents the chemical structure of ingrilimine according to compound (Illa) formula. • Figure 2 represents the cytotoxic activity of ingrilimine. A2780 ovarian and HT29 colorectal carcinoma cells were grown in RPMI 1640 supplemented with 10% fetal calf serum (FCS) and 1% glutamine. U87-MG glioblastoma cells were grown in Dulbecco minimal essential medium containing 4.5 g/L glucose, 10% FCS and 1% glutamine at 37 °C in a humidified atmosphere containing 5% CO2. For IC50 determination, the cells were seeded in 96-well plates (3 × 10^3 cells/well) containing 90 µL of growth medium. After 24 h of culture, the cells were treated with ingrilimine at 10 different final concentrations. Cell viability was determined by luminescence after 72 h incubation. (a) Effect of ingrilimine on A2780 ovarian carcinoma cells. (b) Effect of ingrilimine on U87-MG glioblastoma cells. (c) Effect of ingrilimine on U87-MG glioblastoma cells • Figure 3a-3f represent the mitochondrial dysfunction provoked by ingrilimine. HCT116 cells were treated with ingrilimine in the range of […] for 24h and 48h. Sector Q normal cells that accumulated the JC-1 dye (fluorescence emission 590 nm). […] (a) Non-treated cells incubated with the carrier (DMSO) for 24 h. (b) HCT116 cells incubated with 10 nN ingrilimine for 24 h. (c) HCT116 cells incubated with 250 nM ingrilimine for 24 h. (d) Non-treated cells incubated with the carrier (DMSO) for 48 h. (e) HCT116 cells incubated with 10 nN ingrilimine for 48 h. (f) HCT116 cells incubated with 250 nM ingrilimine for 48. Changes in fluorescence emission were recorded by flow cytometry using the JC-1 mithocondrial membrane potential-dependent fluorescent dye. NT = non-treated cells; IngX = ingrilimine. • Figure 4a-4f represents phosphatidylserine exposure provoked by ingrilimine. […] Quadrants D1 and D2 with dead or necrotic cells, quadrant D3 with normal cells and quadrant D4 with apoptotic cells following phosphatidylserine exposure. (a) Non-treated A2780 cells incubated with the carrier (DMSO) for 24h. (b) A2780 cells incubated with 10 nM ingrilimine for 24 h. (c) A2780 cells incubated with 250 nM ingrilimine for 24 h. (d) Non-treated A2780 cells incubated with the carrier (DMSO) for 48 h. (e) A2780 cells incubated with 10 nM ingrilimine for 48 h. (f) A2780 cells incubated with 250 nM ingrilimine for 48. […] exposure in A2780 cell was quantified by flow cytometry using FITC-Annexin V. Dead or necrotic cells were detected using the vital dye propridium iodide. NT = non-treated cells; IngX = ingrilimine. • Figure 5 represents the antagonistic activity of ingrilimine (named "IngX" in the figure) and portimine (named "Port A" in the figure) against nicotinic acetylcholine receptors recorded by two-electrodes voltage clamp electrophysiology on Xenopus laevis oocytes. Clamped Xenopus laevis oocytes having incorporated the muscle (α1)2βγδ nAChR subtype from Torpedo marmorata (filled squares), or expressing the neuronal α3β2 nAChR subtype from rat (filled triangles), or expressing the human neuronal α7 nAChR subtype (filled circles) were exposed to portimine (100 nM - 1 mM) for 45 seconds. […] A Xenopus laevis oocyte expressing the human α7 nAChR subtype was exposed to 100 µM acetylcholine triggering the immediate opening of the receptor's channel (black bold line) followed by the very-fast closure of the channel ([…]) that became insensitive to acetylcholine during the rest of the 5 seconds exposure (desensitization). When a Xenopus laevis oocyte expressing the human α7 nAChR subtype was exposed first to 10 nM ingrilimine for 45 seconds and then to a mixture (Mix) containing 10 nM ingrilimine and 100 µM acetylcholine, the receptor's channel was closed denoting a strong antagonistic activity of the tested toxin against the α7 nAChR subtype (dotted line). […]
For orientation: Flow cytometry measures light scatter and fluorescence of single cells or particles in a stream.

As to `C=CC1=C[C@@H]2C[C@@H](O)[C@@H](O)/C(C)=C/C/C(C)=C/CCC3=NCCC[C@]32CC1` [Ingrilimine, ingrilimine], the JC-1 % (10 nM, 24 h) is given as 5.1%; the JC-1 % (10 nM, 48 h) was 4.4%; the JC-1 % (50 nM, 24 h) worked out at 6.1%; the JC-1 % (50 nM, 48 h) is on record as 22.6%; the JC-1 % (100 nM, 24 h) came out at 14.9%; the JC-1 % (100 nM, 48 h) is 44.1%. For the same compound, the JC-1 % (250 nM, 24 h) came to 22.7%; the JC-1 % (250 nM, 48 h) amounted to 64.1%; the JC-1 % (500 nM, 24 h) turned out to be 36.9%. Further, the “times less potent than portimine in inducing mitochondrial membrane depolarization” value (HCT116, JC-1) is given as 10 times.

`C=CC1=C[C@@H]2[C@@H]3O[C@]4(CC[C@H](O4)[C@@H](C)C[C@@H](O)C3=O)C[C@H](O)C3=NCC[C@@]32CC1` [Portimine-A] returned a JC-1 % (5 nM, 48 h) of 31.6%; a JC-1 % (10 nM, 24 h) of 19.7%; a JC-1 % (10 nM, 48 h) of 44.6%; a JC-1 % (20 nM, 24 h) of 23.9%; a JC-1 % (20 nM, 48 h, listed as Portimine) of 62.1%; a JC-1 % (20 nM, 48 h, listed as portimine) of 62.3%. For the setting “50 nM, 24 h”, this compound registered a JC-1 % of 37.0%.
